The assay has as its target T1, eGFP-CD82 (KAI1/CD82) (Homo sapiens, UniProt P27701).
T1 sequence (P27701 1-267): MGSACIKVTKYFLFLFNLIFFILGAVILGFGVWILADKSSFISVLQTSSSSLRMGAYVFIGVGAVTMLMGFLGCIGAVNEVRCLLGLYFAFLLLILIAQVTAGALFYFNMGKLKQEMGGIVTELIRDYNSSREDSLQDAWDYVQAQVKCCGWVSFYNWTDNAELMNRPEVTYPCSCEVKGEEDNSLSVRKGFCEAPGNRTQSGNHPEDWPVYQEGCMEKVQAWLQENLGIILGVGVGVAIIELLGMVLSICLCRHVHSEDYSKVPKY
In words: microscale thermophoresis, eGFP fluorescence, cell lysate. Format: binding.

These results are taken from paper PMC6882436 (Journal of Extracellular Vesicles, 2019).

On to `CC(C)CCC[C@@H](C)[C@H]1CC[C@H]2[C@@H]3CC=C4C[C@@H](O)CC[C@]4(C)[C@H]3CC[C@]12C` [cholesterol], for which the Kd was found to be 5.89 µM.
